Assay results published in patent publication US7345070B2, “Peroxisome proliferator activated receptor agonists” (Eli Lilly and Company, priority 2000, dated 2008).

Columns and labels:
[1] = target: T1, huPPARα (Homo sapiens, UniProt Q07869); assay: DNA-dependent binding (ABCD binding) using SPA technology, huPPARα; details: SPA displacement of tritium-labeled PPARα agonist radioligand
T1 sequence (Q07869 1-468): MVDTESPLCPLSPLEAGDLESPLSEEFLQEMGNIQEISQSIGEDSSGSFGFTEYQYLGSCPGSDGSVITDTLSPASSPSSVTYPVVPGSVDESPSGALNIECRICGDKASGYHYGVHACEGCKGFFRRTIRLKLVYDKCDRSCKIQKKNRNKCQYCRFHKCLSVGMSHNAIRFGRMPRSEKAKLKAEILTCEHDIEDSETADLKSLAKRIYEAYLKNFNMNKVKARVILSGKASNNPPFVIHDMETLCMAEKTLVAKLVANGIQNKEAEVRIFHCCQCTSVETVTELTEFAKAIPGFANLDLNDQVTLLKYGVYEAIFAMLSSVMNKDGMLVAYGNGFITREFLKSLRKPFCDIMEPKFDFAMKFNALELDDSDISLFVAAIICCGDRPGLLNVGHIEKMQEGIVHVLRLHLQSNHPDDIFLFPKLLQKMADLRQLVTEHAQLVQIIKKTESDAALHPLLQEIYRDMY
T1 sequence (P19793 1-462 partner): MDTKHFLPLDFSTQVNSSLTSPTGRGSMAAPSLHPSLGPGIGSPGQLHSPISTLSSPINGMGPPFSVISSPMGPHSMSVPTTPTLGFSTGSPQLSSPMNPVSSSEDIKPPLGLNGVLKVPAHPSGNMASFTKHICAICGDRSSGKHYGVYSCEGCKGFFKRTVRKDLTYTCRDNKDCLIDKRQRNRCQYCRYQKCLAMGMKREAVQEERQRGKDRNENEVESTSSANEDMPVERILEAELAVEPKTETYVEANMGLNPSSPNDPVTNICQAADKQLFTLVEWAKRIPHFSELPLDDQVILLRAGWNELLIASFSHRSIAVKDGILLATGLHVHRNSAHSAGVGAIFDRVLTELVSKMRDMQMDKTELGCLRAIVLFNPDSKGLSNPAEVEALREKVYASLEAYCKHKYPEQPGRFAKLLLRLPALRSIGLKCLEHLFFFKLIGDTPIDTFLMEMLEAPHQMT
Protocol: (§1) DNA-dependent binding (ABCD binding) was carried out using SPA technology with PPAR receptors. Tritium-labeled PPARα and PPARγ agonists were used as radioligands for generating displacement curves and IC50 values with compounds of the invention. Cotransfection assays were carried out in CV-1 cells. The reporter plasmid contained an acylCoA oxidase (AOX) PPRE and TK promoter upstream of the luciferase reporter cDNA. Appropriate PPARs and RXRα were constitutively expressed using plasmids containing the CMV promoter. […] In order to eliminate such interference, a GAL4 chimeric system was used in which the DNA binding domain of the transfected PPAR was replaced by that of GAL4, and the GAL4 response element was utilized in place of the AOX PPRE. Cotransfection efficacy was determined relative to PPARα agonist and PPARγ agonist reference molecules. Efficacies were determined by computer fit to a concentration-response curve, or in some cases at a single high concentration of agonist (10 μM). For binding or cotransfection studies with receptors other than PPARs, similar assays were carried out using appropriate ligands, receptors, reporter constructs, etc., for that particular receptor.
(§2) These studies were carried out to evaluate the ability of compounds of the invention to bind to and/or activate various nuclear transcription factors, particularly huPPARα (“hu” indicates “human”) and huPPARγ. These studies provide in vitro data concerning efficacy and selectivity of compounds of the invention. Furthermore, binding and cotransfection data for compounds of the invention were compared with corresponding data for marketed compounds that act on either huPPARα or huPPARγ.

[2] = target: T2, huPPARγ (Homo sapiens, UniProt P37231); assay: DNA-dependent binding (ABCD binding) using SPA technology, huPPARγ; details: SPA displacement of tritium-labeled PPARγ agonist radioligand
T2 sequence (P37231 1-505): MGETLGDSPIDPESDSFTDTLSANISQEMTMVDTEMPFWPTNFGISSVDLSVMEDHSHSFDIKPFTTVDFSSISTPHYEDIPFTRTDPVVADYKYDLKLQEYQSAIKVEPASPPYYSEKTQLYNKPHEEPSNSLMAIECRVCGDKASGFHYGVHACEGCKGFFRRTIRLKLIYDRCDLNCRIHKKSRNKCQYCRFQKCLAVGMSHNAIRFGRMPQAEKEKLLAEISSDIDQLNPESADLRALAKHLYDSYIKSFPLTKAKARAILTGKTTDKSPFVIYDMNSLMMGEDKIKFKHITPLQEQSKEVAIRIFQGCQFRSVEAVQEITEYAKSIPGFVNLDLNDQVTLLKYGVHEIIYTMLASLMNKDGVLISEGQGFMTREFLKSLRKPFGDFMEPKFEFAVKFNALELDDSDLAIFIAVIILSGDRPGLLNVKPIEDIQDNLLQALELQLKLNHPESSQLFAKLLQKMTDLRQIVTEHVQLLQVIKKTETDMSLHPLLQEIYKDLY
T2 sequence (P19793 1-462 partner): T1 sequence (P19793 1-462 partner)
Protocol: as §1, §2

[3] = system: huPPARα; assay: Cotransfection assay in CV-1 cells, huPPARα; type: cell-based, human; details: GAL4 chimeric system, relative to PPARα agonist reference molecule
Protocol: as §1, §2

[4] = system: HuapoAI transgenic mice; assay: Evaluation of triglyceride and cholesterol level in HuapoAI transgenic mice; type: in vivo; details: Mus musculus, 168 h; human apoAI transgenic mice, 30 mg/kg oral gavage daily for 7 days, FPLC area under the curve, over mice receiving vehicle; read-out: % HDLc Increase
Protocol: After an acclimation period of 2 weeks, animals were individually identified by ear notches, weighed, and assigned to groups based on body weight. Beginning the following morning, mice were dosed daily by oral gavage for 7 days using a 20 gauge, 1½″ curved disposable feeding needle (Popper & Sons). […] Prior to termination on day 7, mice were weighed and dosed. Three hours after dosing, animals were anesthetized by inhalation of isoflurane (2-4%; Abbott Laboratories, Chicago, Ill.) and blood obtained via cardiac puncture (0.7-1.0 ml). Whole blood was transferred to serum separator tubes (Vacutainer SST), chilled on ice, and permitted to clot. Serum was obtained after centrifugation at 4° C. and frozen until analysis for triglycerides, total cholesterol, compound levels, and serum lipoprotein profile by fast protein liquid chromatography (FPLC) coupled to an inline detection system. After sacrifice by cervical dislocation, the liver, heart and epididymal fat pads were excised and weighed.
The absorbance of the dye produced is linearly related to the analyte in the sample. The assays were further modified in our laboratory for use in a 96 well format. […] An additional aliquot of sample, pipetted to a third well and diluted in 200 μl water, provided a blank for each specimen. […] Sample absorbances were compared to a standard curve (100-800, 10-500, and 100-400 mg/dl for glucose, triglycerides and total cholesterol, respectively). […] All samples from an experiment were assayed at the same time to minimize inter-assay variability.
Serum lipoproteins were separated and cholesterol quantitated with an in-line detection system. Sample was applied to a Superose® 6 HR 10/30 size exclusion column (Amersham Pharmacia Biotech) and eluted with phosphate buffered saline-EDTA at 0.5 ml/min. […] The change in voltage corresponding to change in cholesterol concentration was plotted vs time and the area under the curve corresponding to the elution of VLDL, LDL and HDL was calculated using Perkin Elmer Turbochrome software.

[5] = target: T2, huPPARγ; assay: Cotransfection assay in CV-1 cells, huPPARγ; type: cell-based; parameters: Appropriate PPARs and RXRα were constitutively expressed using plasmids containing the CMV promoter; expressed in transfected cells; host or cells: CV-1 cells; details: AOX PPRE luciferase reporter, relative to PPARγ agonist reference molecule; for Emax: read-out: huPPARγ CTF Efficacy
Protocol: as §1, §2

| IC50 [1] [nM] | IC50 [2] [nM] | Emax [5] [%] | huPPARγ CTF Efficacy [5] [%] | Structure (SMILES) | huPPARα CTF Efficacy [3] [%] | change in vivo at 30 mg/kg [4] [%] |
| --- | --- | --- | --- | --- | --- | --- |
| 53 | 19 | 73 | – | Cc1oc(C2CCCCC2)nc1CCOc1ccc(CC(C)(Oc2ccc(Cl)cc2)C(=O)O)cc1 (stereo not drawn) [Example 31, 2-(4-Chlorophenoxy)-3-{4-[2-(2-cyclohexyl-5-methyl-oxazol-4-yl)-ethoxy]-phenyl}-2-methyl-propionic acid] | 63 | 114 |
| 175 | 655 | 58 | – | CCC(Cc1ccc(OCCc2nc(C3(C)CCCCC3)oc2C)cc1)(Oc1ccccc1)C(=O)O (stereo not drawn) [Example 49, 2-(4-{2-[5-Methyl-2-(1-methyl-cyclohexyl)-oxazol-4-yl]-ethoxy}-benzyl)-2-phenoxy-butyric acid] | 63 | 17 |
| – | – | – | 0 | CC(C)(Oc1ccc(C(=O)c2ccc(Cl)cc2)cc1)C(=O)O [Fenofibric acid, reference compound] | 16 | – |
